Non-standard residues stand in square brackets, D forms with d. Residues, ends and D or L forms follow the SMILES beside them. Inp = O=C(O)C1CCNCC1
Legend:
Assay type in all cases: cell-based
[1] = target: T1, Neuropeptide FF receptor 1 (Homo sapiens, UniProt Q9GZQ6); assay: Displacement of [3H]FFRF-NH2 from human flag-tagged NPFF1 receptor expressed in CHO cells by scintillation counting
[2] = target: T2, Neuropeptide FF receptor 2 (Homo sapiens, UniProt Q9Y5X5); assay: Displacement of [3H]FFRF-NH2 from human flag-tagged NPFF2 receptor expressed in CHO cells by scintillation counting
T2 sequence (Q9Y5X5 whole entry): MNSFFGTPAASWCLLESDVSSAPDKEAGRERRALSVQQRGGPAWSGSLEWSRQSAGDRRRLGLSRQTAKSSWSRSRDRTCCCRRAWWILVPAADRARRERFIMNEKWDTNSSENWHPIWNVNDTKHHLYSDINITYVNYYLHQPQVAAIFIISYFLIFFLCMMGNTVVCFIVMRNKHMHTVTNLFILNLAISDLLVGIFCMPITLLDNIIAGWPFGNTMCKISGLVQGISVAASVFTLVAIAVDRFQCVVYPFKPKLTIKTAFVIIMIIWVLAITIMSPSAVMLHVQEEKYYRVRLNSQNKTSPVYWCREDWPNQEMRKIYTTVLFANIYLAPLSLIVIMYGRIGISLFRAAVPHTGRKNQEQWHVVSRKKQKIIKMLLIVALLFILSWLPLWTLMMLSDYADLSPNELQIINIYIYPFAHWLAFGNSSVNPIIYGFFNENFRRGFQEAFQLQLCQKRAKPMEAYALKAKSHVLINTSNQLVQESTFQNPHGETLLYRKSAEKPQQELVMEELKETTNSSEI

[3] = target: T1, Neuropeptide FF receptor 1; assay: Displacement of [3H]FFRF-NH2 from human flag-tagged NPFF1 receptor expressed in CHO cells at 500 nM by scintillation counting
[4] = target: T2, Neuropeptide FF receptor 2; assay: Displacement of [3H]FFRF-NH2 from human flag-tagged NPFF2 receptor expressed in CHO cells at 5 uM by scintillation counting
[5] = target: T1, Neuropeptide FF receptor 1; assay: Displacement of [3H]FFRF-NH2 from human flag-tagged NPFF1 receptor expressed in CHO cells at 5 uM by scintillation counting
[6] = target: T2, Neuropeptide FF receptor 2; assay: Displacement of [3H]FFRF-NH2 from human flag-tagged NPFF2 receptor expressed in CHO cells at 500 nM by scintillation counting

T1 sequence (Q9GZQ6 whole entry): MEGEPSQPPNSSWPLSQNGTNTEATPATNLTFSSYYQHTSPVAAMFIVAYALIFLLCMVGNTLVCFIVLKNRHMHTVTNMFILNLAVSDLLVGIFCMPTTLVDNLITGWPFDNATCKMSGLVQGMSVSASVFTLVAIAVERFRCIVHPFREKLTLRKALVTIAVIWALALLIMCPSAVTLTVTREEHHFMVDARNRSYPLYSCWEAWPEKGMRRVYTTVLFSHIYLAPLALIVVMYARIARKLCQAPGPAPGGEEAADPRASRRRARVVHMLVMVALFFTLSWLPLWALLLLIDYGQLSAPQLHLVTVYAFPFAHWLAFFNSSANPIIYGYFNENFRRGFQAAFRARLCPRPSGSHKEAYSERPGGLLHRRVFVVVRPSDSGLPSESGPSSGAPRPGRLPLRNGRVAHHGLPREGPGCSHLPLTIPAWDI

| SMILES | Ki [1] | Ki [2] | inhibition [3] | inhibition [4] | inhibition [5] | inhibition [6] |
| --- | --- | --- | --- | --- | --- | --- |
| NC(=O)[C@H](Cc1ccccc1)NC(=O)[C@H](CCCN=C(N)N)NC(=O)c1ccc2ccccc2n1 | 121 nM | 47 nM |  |  |  |  |
| NC(=O)[C@@H](Cc1ccccc1)NC(=O)[C@@H](CCCN=C(N)N)NC(=O)c1ccccc1-c1ccccc1 | 5 nM | 155 nM |  |  |  |  |
| NC(=O)[C@@H](Cc1ccccc1)NC(=O)[C@@H](CCCN=C(N)N)NC(=O)c1ccc(-c2ccccc2)cc1 | 167 nM | 417 nM |  |  |  |  |
| N=C(N)NCCC[C@H](NC(=O)c1cccc(-c2ccccc2)c1)C(=O)N[C@@H](Cc1ccccc1)C(N)=O |  |  | 26% | 56% | 82% | 27% |
| COc1cccc(CC(=O)N[C@@H](CCCNC(=N)N)C(=O)N[C@@H](Cc2ccccc2)C(N)=O)c1 |  |  | 42% | 50% | 89% | 19% |
| N=C(N)NCCC[C@H](NC(=O)c1ccc(Cl)c(Cl)c1)C(=O)N[C@@H](Cc1ccccc1)C(N)=O |  |  | 25% | 67% | 77% | 12% |
| CCCCCC(=O)N[C@@H](CCCNC(=N)N)C(=O)N[C@@H](Cc1ccccc1)C(N)=O |  |  | 45% | 53% | 95% | 30% |
| N=C(N)NCCC[C@H](NC(=O)c1ccc(-c2ccccc2)cc1)C(=O)N[C@@H](Cc1ccccc1)C(N)=O |  |  | 20% | 15% | 43% | 0% |
| N=C(N)NCCC[C@H](NC(=O)c1ccc2ccccc2c1)C(=O)N[C@@H](Cc1ccccc1)C(N)=O |  |  | 27% | 56% | 81% | 23% |
| COc1ccc(/C=C/C(=O)N[C@@H](CCCNC(=N)N)C(=O)N[C@@H](Cc2ccccc2)C(N)=O)cc1 |  |  | 35% | 64% | 100% | 21% |
| N=C(N)NCCC[C@H](NC(=O)c1c(Cl)cccc1Cl)C(=O)N[C@@H](Cc1ccccc1)C(N)=O |  |  | 30% | 11% | 85% | 0% |
| N=C(N)NCCC[C@H](NC(=O)c1ccc2ccccc2n1)C(=O)N[C@@H](Cc1ccccc1)C(N)=O |  |  | 34% | 82% | 100% | 28% |
| N=C(N)NCCC[C@H](NC(=O)C(c1ccccc1)c1ccccc1)C(=O)N[C@@H](Cc1ccccc1)C(N)=O |  |  | 34% | 33% | 88% | 0% |
| N=C(N)NCCC[C@H](NC(=O)/C=C/c1ccccc1O)C(=O)N[C@@H](Cc1ccccc1)C(N)=O |  |  | 25% | 77% | 82% | 17% |
| N=C(N)NCCC[C@H](NC(=O)c1ccco1)C(=O)N[C@@H](Cc1ccccc1)C(N)=O |  |  | 42% | 23% | 92% | 3% |
| N=C(N)NCCC[C@@H](NC(=O)c1ccc(-c2ccccc2)cc1)C(=O)N[C@@H](Cc1ccccc1)C(N)=O |  |  | 81% | 57% | 92% | 43% |

| SMILES | Ki [1] | Ki [2] | inhibition [3] | inhibition [4] | inhibition [5] | inhibition [6] |
| --- | --- | --- | --- | --- | --- | --- |
| N=C(N)NCCC[C@H](NC(=O)c1ccccc1-c1ccccc1)C(=O)N[C@@H](Cc1ccccc1)C(N)=O |  |  | 96% | 30% | 100% | 22% |
| N=C(N)NCCC[C@H](NC(=O)c1ccc(Cl)cc1)C(=O)N[C@@H](Cc1ccccc1)C(N)=O |  |  | 37% | 7% | 59% | 3% |
| N=C(N)NCCC[C@H](NC(=O)c1[nH]c2ccccc2c1-c1ccccc1)C(=O)N[C@@H](Cc1ccccc1)C(N)=O |  |  | 39% | 27% | 92% | 14% |
| N=C(N)NCCC[C@H](NC(=O)CCC(=O)O)C(=O)N[C@@H](Cc1ccccc1)C(N)=O |  |  | 29% | 20% | 34% | 0% |
| N=C(N)NCCC[C@H](NC(=O)c1nc2ccccc2[nH]1)C(=O)N[C@@H](Cc1ccccc1)C(N)=O |  |  | 35% | 49% | 98% | 12% |
| N=C(N)NCCC[C@H](NC(=O)c1ccc(Cl)cc1Cl)C(=O)N[C@@H](Cc1ccccc1)C(N)=O |  |  | 0% | 38% | 75% | 2% |
| N=C(N)NCCC[C@H](NC(=O)/C=C/c1cccnc1)C(=O)N[C@@H](Cc1ccccc1)C(N)=O |  |  | 3% | 27% | 41% | 6% |
| N=C(N)NCCC[C@@H](NC(=O)Cc1ccccc1)C(=O)N[C@H](Cc1ccccc1)C(N)=O |  |  | 43% | 30% | 78% | 4% |
| COc1ccc(CC(=O)N[C@@H](CCCNC(=N)N)C(=O)N[C@@H](Cc2ccccc2)C(N)=O)cc1OC |  |  | 8% | 28% | 70% | 0% |
| N=C(N)NCCC[C@H](NC(=O)C12CC3CC(CC(C3)C1)C2)C(=O)N[C@@H](Cc1ccccc1)C(N)=O |  |  | 60% | 85% | 97% | 40% |
| N=C(N)NCCC[C@H](NC(=O)C1CCNCC1)C(=O)N[C@@H](Cc1ccccc1)C(N)=O (H-[Inp]-Arg-Phe-NH2) |  |  | 26% | 59% | 100% | 19% |
| N=C(N)NCCC[C@H](NC(=O)c1cccc2ccccc12)C(=O)N[C@@H](Cc1ccccc1)C(N)=O |  |  | 40% | 82% | 90% | 37% |
| N=C(N)NCCC[C@@H](NC(=O)c1cccc(-c2ccccc2)c1)C(=O)N[C@@H](Cc1ccccc1)C(N)=O |  |  | 85% | 72% | 99% | 65% |
| Cc1ccc(CC(=O)N[C@@H](CCCNC(=N)N)C(=O)N[C@@H](Cc2ccccc2)C(N)=O)cc1 |  |  | 34% | 14% | 72% | 5% |
| N=C(N)NCCC[C@H](NC(=O)c1cc2ccccc2[nH]1)C(=O)N[C@@H](Cc1ccccc1)C(N)=O |  |  | 26% | 80% | 86% | 35% |

The remaining lines, values ahead:

| Ki [1] | Ki [2] | inhibition [3] | inhibition [4] | inhibition [5] | inhibition [6] | SMILES |
| --- | --- | --- | --- | --- | --- | --- |
| 35 nM | 425 nM |  |  |  |  | NC(=O)[C@H](Cc1ccccc1)NC(=O)[C@@H](CCCN=C(N)N)NC(=O)Cc1ccccc1 |
| 0.9 nM |  |  |  |  |  | NC(=O)[C@H](Cc1ccccc1)NC(=O)[C@H](CCCN=C(N)N)NC(=O)CCN1c2ccccc2Sc2ccccc21 |
|  |  | 0% | 38% | 61% | 17% | N=C(N)NCCC[C@H](NC(=O)Cc1ccc(O)c(O)c1)C(=O)N[C@@H](Cc1ccccc1)C(N)=O |
|  |  | 35% | 30% | 73% | 15% | N=C(N)NCCC[C@@H](NC(=O)c1ccccc1)C(=O)N[C@H](Cc1ccccc1)C(N)=O |
|  |  | 40% | 50% | 83% | 6% | N=C(N)NCCC[C@@H](NC(=O)c1ccc(-c2ccccc2)cc1)C(=O)N[C@H](Cc1ccccc1)C(N)=O |
|  |  | 37% | 40% | 89% | 16% | N=C(N)NCCC[C@H](NC(=O)CC(c1ccccc1)c1ccccc1)C(=O)N[C@@H](Cc1ccccc1)C(N)=O |
|  |  | 1% | 18% | 22% | 0% | N=C(N)NCCC[C@H](NC(=O)/C=C/c1cnc[nH]1)C(=O)N[C@@H](Cc1ccccc1)C(N)=O |
|  |  | 18% | 21% | 52% | 14% | COc1ccc(CC(=O)N[C@@H](CCCNC(=N)N)C(=O)N[C@@H](Cc2ccccc2)C(N)=O)cc1 |
|  |  | 15% | 40% | 78% | 0% | N=C(N)NCCC[C@H](NC(=O)c1cccc(C(=O)c2ccccc2)c1)C(=O)N[C@@H](Cc1ccccc1)C(N)=O |
|  |  | 14% | 43% | 68% | 4% | N=C(N)NCCC[C@H](NC(=O)c1ccc(C(=O)c2ccccc2)cc1)C(=O)N[C@@H](Cc1ccccc1)C(N)=O |
|  |  | 40% | 19% | 96% | 10% | COc1ccccc1C(=O)N[C@@H](CCCNC(=N)N)C(=O)N[C@@H](Cc1ccccc1)C(N)=O |
|  |  | 63% | 38% | 88% | 6% | N=C(N)NCCC[C@@H](NC(=O)c1cccc(-c2ccccc2)c1)C(=O)N[C@H](Cc1ccccc1)C(N)=O |
|  |  | 18% | 21% | 74% | 2% | N=C(N)NCCC[C@H](NC(=O)c1ccncc1)C(=O)N[C@@H](Cc1ccccc1)C(N)=O |
|  |  | 9% | 27% | 28% | 8% | N=C(N)NCCC[C@H](NC(=O)c1ccc2nc[nH]c2c1)C(=O)N[C@@H](Cc1ccccc1)C(N)=O |
|  |  | 11% | 23% | 64% | 9% | N=C(N)NCCC[C@H](NC(=O)c1cccnc1)C(=O)N[C@@H](Cc1ccccc1)C(N)=O |
|  |  | 18% | 21% | 71% | 1% | COc1ccc(C(=O)N[C@@H](CCCNC(=N)N)C(=O)N[C@@H](Cc2ccccc2)C(N)=O)cc1 |
|  |  | 27% | 37% | 92% | 16% | N=C(N)NCCC[C@H](NC(=O)Cc1ccccc1O)C(=O)N[C@@H](Cc1ccccc1)C(N)=O |
